Assay results reported in patent EP2492354A1, “Method for identifying compounds useful in the treatment of photosensitive reflex epilepsy” (Institut National De La Recherche Agronomique (INRA), priority 2011, dated 2012).

Columns and labels:
Fepi = assay: Intermittent Light Stimulation (ILS) induced seizures in the photosensitive reflex epileptic chicken model; assay type: in vivo
Method: During 21 days, they were exposed to ILS (3 minutes) once a day.
Behavioural activities were observed and time recorded for each phase of the paroxysmal manifestation during controlled intermittent light stimulation: • T0: ILS starts • T1 (time in seconds): neck myoclonus starts • T2 (time in seconds): convulsive phase starts • T3 (time in seconds): convulsive phase ends
The first day they were tested for control and all had ILS induced seizures. […]
During the last 10 days, none of the animals was treated.
The influence of the treatment on the stimulus locked myoclonus and generalized convulsions of the photosensitive GRS was evaluated using generalized linear models implemented in the function glm of the software R, version 2.9.0. The number of seizures for each animal over a given phase of the experiment (with treatment and following treatment) was modeled using a binomial distribution, and linked to factors using the logit function. The delay for seizure initiation, the duration of the myoclonus and the duration of the convulsions were modeled using gamma distributions, and linked to the factors using the identity function. Sex was included as an additive co-factor in the analyses but not significant differences were found.

[1] = cited from earlier work
plasma proteins = conditions: cited from earlier work

## CC[C@@H](C(N)=O)N1CCCC1=O [(S)-a-ethyl-2-oxo-1-pyrrolidine acetamide]
Fepi; chicken model of the invention
  anticonvulsant effect: has an anticonvulsant effect
Fepi; last 10 days without treatment
  persistence of the effect after the injection period: the effect partially persisting few days after the injection period
Fepi; treated (50, 100 or 200 mg/Kg) homozygous, placebo 16.2 s, p-value 1 e-08
  seizure duration (on average): 10.7 s
[1]; in vivo
  dose range over which the pharmacokinetics are linear: 500 to 5000 mg
[1]; oral administration to fasted subjects
  time to peak plasma concentrations: one
[1]; oral, with food
  decrease of Cmax by food: 20%
  delay of Tmax by food: 1.5 h
[1]; tablets
  oral bioavailability: 100%
[1]; twice-daily dosing
  time to steady state: 2 days
Plasma proteins
  bound to plasma proteins: less than 10%
